Test systems include A549; CCRF-CEM; HCT-116; HOP-62; HT-29; M14; MCF7; MOLT-4; NCI-H522; NCI/ADR-RES; OVCAR-4; OVCAR-5; RXF 393; SF-295; SK-MEL-5; SK-OV-3; SNB-19; SW-620; T47D; UACC-257.
Test in all cases: DTP human tumour cell line panel, 48 h

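Following 48 hours of exposure in 96-well plates, responses at five concentrations were used to interpolate endpoints linearly. Here, GI50 denotes the concentration required for 50% inhibition of growth.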 Calls of active or inactive are those of the source. Rule as the data show it: active = GI50 up to about 1.1 µM and inactive = higher.

In general, GI50 refers to the concentration that inhibits growth by half.

Consider `CN(C)CCCN=C(N)N`, for which the GI50 in the test on A549, in the test with CCRF-CEM, in the test with HCT-116, with HOP-62, in the test with HT-29 and with M14 was > 100 µM (inactive) throughout. Moreover, the GI50 in the test with MCF7, in the test on MOLT-4, in the test with NCI-H522, with NCI/ADR-RES, in the test with OVCAR-4 and in the test with OVCAR-5 was > 100 µM (inactive) each time. In addition, the GI50 with RXF 393, in the test with SF-295, in the test on SK-MEL-5, in the test with SK-OV-3, with SNB-19 and in the test with SW-620 was > 100 µM (inactive) throughout. Further, the GI50 in the test with T47D and in the test with UACC-257 was > 100 µM (inactive) each time.

With `O=C(CCc1cc(O)cc(O)c1)NCCCNC(=O)CCc1cc(O)cc(O)c1`, the GI50 in the test with A549, in the test on CCRF-CEM, with HCT-116, with HOP-62, in the test on HT-29 and in the test on M14 was > 100 µM (inactive) in each case. Moreover, the GI50 in the test on MCF7, in the test on MOLT-4, with NCI-H522, with NCI/ADR-RES, in the test with OVCAR-4 and in the test with OVCAR-5 was > 100 µM (inactive) throughout. Also, the GI50 in the test with RXF 393, with SF-295, in the test on SK-MEL-5, in the test with SK-OV-3, in the test on SNB-19 and in the test on SW-620 was > 100 µM (inactive) throughout. Besides, the GI50 in the test on T47D and with UACC-257 was > 100 µM (inactive) throughout.

As for `CCCc1cn2c(/C=N/NC(=N)N)c(-c3cccc([N+](=O)[O-])c3)nc2s1`, the GI50 with A549 is 1.73 µM (inactive); in the test with CCRF-CEM, 0.746 µM (active); with HCT-116 it was 2.27 µM (inactive); with HOP-62 it was 1.78 µM (inactive); with HT-29 it was 2.06 µM (inactive); in the test with M14, 2.02 µM (inactive). The GI50 in the test with MCF7 was 2.48 µM (inactive); in the test with MOLT-4, 1.23 µM (inactive); in the test with NCI-H522, 1.98 µM (inactive); with NCI/ADR-RES it was 2.92 µM (inactive); in the test with OVCAR-4, 1.47 µM (inactive); in the test on OVCAR-5, 1.81 µM (inactive). For the same molecule, the GI50 is 1.89 µM (inactive) in the test with RXF 393; 1.84 µM (inactive) with SF-295; 1.98 µM (inactive) in the test on SK-MEL-5; 2.22 µM (inactive) with SK-OV-3; 2.07 µM (inactive) in the test on SNB-19; 3.08 µM (inactive) with SW-620. In addition, the GI50 was 1.94 µM (inactive) in the test on T47D and 1.71 µM (inactive) in the test on UACC-257.

For the molecule `CCSc1nnc2c(-c3ccccc3)n[nH]c2n1`, the GI50 is > 100 µM (inactive) with A549; 24.3 µM (inactive) in the test on CCRF-CEM; > 100 µM (inactive) in the test with HCT-116; 59.8 µM (inactive) with HOP-62; > 100 µM (inactive) in the test with HT-29; > 100 µM (inactive) in the test on M14. In addition, the GI50 in the test on MCF7, in the test on MOLT-4, in the test on NCI-H522, in the test on NCI/ADR-RES, with OVCAR-4 and with OVCAR-5 was > 100 µM (inactive) throughout. Further, the GI50 in the test on RXF 393 was > 100 µM (inactive); with SF-295, 31 µM (inactive); in the test with SK-MEL-5, > 100 µM (inactive); with SK-OV-3 it was 44.3 µM (inactive); in the test with SNB-19, > 100 µM (inactive); in the test on SW-620, > 100 µM (inactive). For the same molecule, the GI50 in the test with T47D and in the test with UACC-257 was > 100 µM (inactive) throughout.

Take `COC(=O)c1ccc(CCC2=CC(=O)C(Br)=CC2=O)cc1`: the GI50 in the test with A549 is 19.4 µM (inactive); in the test on CCRF-CEM, 0.615 µM (active); in the test on HCT-116, 16 µM (inactive); in the test on HOP-62, 17.8 µM (inactive); with HT-29, 16.7 µM (inactive); in the test on M14 it was 14.7 µM (inactive). The GI50 with MCF7 is 16.5 µM (inactive); in the test on MOLT-4, 2.47 µM (inactive); in the test on NCI-H522 it was 2.68 µM (inactive); with NCI/ADR-RES it was 18.7 µM (inactive); with OVCAR-4, 17.2 µM (inactive); in the test with OVCAR-5, 18.8 µM (inactive). In addition, the GI50 in the test on RXF 393 is 18.3 µM (inactive); in the test with SF-295 it was 19.5 µM (inactive); in the test on SK-MEL-5, 12.1 µM (inactive); in the test with SK-OV-3, 17.8 µM (inactive); in the test on SNB-19, 15.6 µM (inactive); in the test on SW-620 it was 13.6 µM (inactive). In addition, the figures for the GI50 with T47D and in the test with UACC-257 were 21.5 µM (inactive) and 15.6 µM (inactive), respectively.

As to `O=c1c2cc(I)ccc2nc(Sc2ncccc2[N+](=O)[O-])n1Cc1ccccc1`, the GI50 in the test on A549 was 28 µM (inactive); with CCRF-CEM, 0.249 µM (active); in the test with HCT-116, 18.8 µM (inactive); in the test with HOP-62, 70 µM (inactive); in the test on HT-29, 34.2 µM (inactive); with M14, 28.3 µM (inactive). For the same molecule, the GI50 with MCF7 was 18.3 µM (inactive); in the test with MOLT-4 it was 23.2 µM (inactive); in the test with NCI-H522, 13.2 µM (inactive); in the test with NCI/ADR-RES, 17.2 µM (inactive); with OVCAR-4, 33.3 µM (inactive); in the test on OVCAR-5, > 100 µM (inactive). The GI50 is 13.4 µM (inactive) in the test with RXF 393; 60 µM (inactive) in the test on SF-295; 18.3 µM (inactive) with SK-MEL-5; 63.1 µM (inactive) in the test with SK-OV-3; 45.9 µM (inactive) with SNB-19; 33.1 µM (inactive) with SW-620. For the same molecule, the GI50 is 26.3 µM (inactive) with T47D and 23.2 µM (inactive) in the test with UACC-257.

For the molecule `O=C1C(=Cc2ccco2)C(=O)C2CCCCC12` (stereo not given), the GI50 in the test with A549, in the test on CCRF-CEM, in the test on HCT-116, in the test with HOP-62, in the test with HT-29 and in the test with M14 was > 100 µM (inactive) each time. For the same molecule, the GI50 in the test with MCF7, with MOLT-4, in the test on NCI-H522, with NCI/ADR-RES, with OVCAR-4 and in the test on OVCAR-5 was > 100 µM (inactive) in each case. The GI50 in the test on RXF 393, in the test with SF-295, with SK-MEL-5, in the test with SK-OV-3, with SNB-19 and in the test with SW-620 was > 100 µM (inactive) throughout. Besides, the GI50 in the test on T47D and in the test on UACC-257 was > 100 µM (inactive) in each case.

For `C/C(=N\c1ccc(N(C)C)cc1)c1ccccc1`, the GI50 is 27.9 µM (inactive) with A549; 17.7 µM (inactive) with CCRF-CEM; 16.9 µM (inactive) with HCT-116; 96.2 µM (inactive) with HOP-62; 30.5 µM (inactive) in the test on HT-29; 16.3 µM (inactive) with M14. The GI50 was 21.9 µM (inactive) in the test with MCF7; 23.9 µM (inactive) with MOLT-4; 16.7 µM (inactive) with NCI-H522; 27 µM (inactive) in the test on NCI/ADR-RES; 25.1 µM (inactive) with OVCAR-4; > 100 µM (inactive) with OVCAR-5. For the same molecule, the GI50 was 5.35 µM (inactive) in the test on RXF 393; 31.9 µM (inactive) in the test with SF-295; 15.9 µM (inactive) with SK-MEL-5; > 100 µM (inactive) with SK-OV-3; 86.3 µM (inactive) in the test with SNB-19; 17.9 µM (inactive) with SW-620. In addition, the GI50 is 21.7 µM (inactive) in the test with T47D and > 10 µM (inactive) in the test with UACC-257.

For the molecule `CC(C(=O)c1ccccc1)C(c1ccccc1)N1CCOCC1` (stereo not given), the GI50 in the test with A549 is > 100 µM (inactive); in the test with CCRF-CEM it was 36.1 µM (inactive); with HCT-116, > 100 µM (inactive); in the test with HOP-62, > 100 µM (inactive); in the test on HT-29, > 100 µM (inactive); with M14, > 100 µM (inactive). The GI50 was > 100 µM (inactive) in the test on MCF7; 66.8 µM (inactive) with MOLT-4; > 100 µM (inactive) in the test with NCI-H522; > 100 µM (inactive) in the test on NCI/ADR-RES; > 100 µM (inactive) in the test on OVCAR-4; > 100 µM (inactive) in the test with OVCAR-5. The GI50 in the test on RXF 393, in the test on SF-295, in the test on SK-MEL-5, in the test with SK-OV-3, with SNB-19 and in the test with SW-620 was > 100 µM (inactive) in each case. The GI50 in the test on T47D and in the test with UACC-257 was > 100 µM (inactive) in each case.

As to `COc1ccc2nc3cc(Cl)ccc3c(NCCCNCCCNc3c4ccc(Cl)cc4nc4ccc(OC)cc34)c2c1`, the GI50 was 0.0132 µM (active) in the test on A549; < 0.01 µM (active) in the test with CCRF-CEM; < 0.01 µM (active) in the test with HCT-116; < 0.01 µM (active) in the test with HOP-62; < 0.01 µM (active) in the test with HT-29; 0.0266 µM (active) in the test on M14. The GI50 is 0.012 µM (active) in the test on MCF7; 0.329 µM (active) in the test on MOLT-4; 0.0128 µM (active) in the test with NCI-H522; 0.581 µM (active) in the test with NCI/ADR-RES; < 0.01 µM (active) in the test on OVCAR-4; < 0.0224 µM (active) in the test with OVCAR-5. Further, the GI50 in the test with RXF 393 was 0.224 µM (active); with SF-295, < 0.01 µM (active); in the test with SK-MEL-5 it was 0.0247 µM (active); in the test on SK-OV-3 it was 0.0352 µM (active); with SNB-19, < 0.0179 µM (active); with SW-620, 0.0131 µM (active). Moreover, the GI50 in the test with T47D was 0.0625 µM (active); in the test on UACC-257, 0.251 µM (active).

(Values after ChEMBL document CHEMBL1201862, “PubChem BioAssay data set” (2004).)
